Assay results published in patent publication US20240382548A1, “COMPOSITIONS COMPRISING CASTANEA SATIVA EXTRACTS FOR TREATMENT OF HELICOBACTER PYLORI INFECTIONS” (priority 2021, published 2024).
Converted amounts (≈) assume the structure as drawn. Where two headings read alike, the source gives them in different places.

Tests used:
[1] = test system: IL-8 release induced by H. pylori in GES-1 cells; assay: IL-8 release induced by H. pylori in GES-1 cells; type: cell-based, human; details: for effect on IL-8 release induced by the pathogen: 10-50 μM
Experimental: At the same concentrations, the extract inhibits IL-8 release induced by H. pylori in GES-1 cells; the pathogen induces IL-8 release in gastric epithelial cells, of about a 20-fold increase compared with the unstimulated control. […] EGCG 50 μM (50% inhibition) was used as a positive control.

[2] = test system: nuclear transcription factor NF-κB; assay: NF-κB-guided transcription (luciferase reporter) induced by H. pylori; type: cell-based; details: 50 μM, positive control
Experimental: The nuclear transcription factor NF-κB is involved in inflammation of the gastric epithelium induced by H. pylori and is also responsible for increased expression of pro-inflammatory genes, including IL-8, in the gastric cells. […] The cells were 20 subjected to transient transfection with a plasmid containing three KB responsive sites upstream of the gene encoding for luciferase; the cells then underwent treatment with the pathogen, and the transcription was measured after 6 hours by luminescence.

H. pylori = assay: Antibacterial activity (MIC) on a strain of H. pylori; type: cell-based; details: Helicobacter pylori; for MIC: read-out: MIC on H. pylori
Experimental: The antibacterial activity of the chestnut extract was evaluated by measuring the MIC (Minimum Inhibitory Concentration) on a strain of H. pylori.

[3] = test system: non-tumoral human gastric epithelial cells GES-1; type: cell-based; details: 10-50 μM concentration range
Experimental: Firstly, the extract was analysed to establish its possible cytotoxicity (using the MTT colorimetric assay) towards non-tumoral human gastric epithelial cells GES-1 in the presence of H. pylori (ratio 1:50).

In the case of `O=C(O[C@@H]1Cc2c(O)cc(O)cc2O[C@@H]1c1cc(O)c(O)c(O)c1)c1cc(O)c(O)c(O)c1` [EGCG, epigallocatechin gallate, reference compound], the “inhibition of IL-8 release” value ([1]; 50 μM, positive control) is reported as 50% and the “inhibition of NF-κB-guided transcription” value [2] is reported as 63%.

`CN(C)[C@@H]1C(O)=C(C(N)=O)C(=O)[C@@]2(O)C(O)=C3C(=O)c4c(O)cccc4[C@@](C)(O)[C@H]3C[C@@H]12` [Tetracycline, reference compound] was tested, and the inhibition at 0.25 µg/mL (H. pylori; 0.25 μg/mL, positive control, read-out: inhibition of the growth of the pathogen) was 80%.

With `O=C1OC[C@H]2OC(=O)c3cc(O)c(O)c(O)c3-c3c(O)c(O)c(O)c4c3C(=O)O[C@H]([C@H]3OC(=O)c5c-4c(O)c(O)c(O)c5[C@H]3O)[C@@H]2OC(=O)c2cc(O)c(O)c(O)c2-c2c1cc(O)c(O)c2O` [castalagin] the toxicity [3] was “did not exhibit any toxicity”, the “effect on IL-8 release induced by the pathogen” value [1] was “concentration-dependent inhibition” and the MIC (H. pylori; same experimental conditions as the extract) was 25 µM (≈ 23.4 µg/mL).

`O=C1OCC2OC(=O)c3cc(O)c(O)c(O)c3-c3c(O)c(O)c(O)c4c3C(=O)OC(C2OC(=O)c2cc(O)c(O)c(O)c2-c2c1cc(O)c(O)c2O)C1OC(=O)c2c-4c(O)c(O)c(O)c2C1O` (stereo not drawn) [vescalagin] was tested, and the toxicity [3] was “did not exhibit any toxicity”, the “effect on IL-8 release induced by the pathogen” value [1] was “concentration-dependent inhibition” and the MIC (H. pylori) was 25 µM (≈ 23.4 µg/mL).
